Assays:
MbPyIRS/tRNACUA pair = target: T1, MbPyIRS/tRNACUA pair (Methanosarcina barkeri, UniProt Q6WRH6); experiment: Expression of myoglobin-his6 (amber codon at position 4) in E. coli with the MbPyIRS/tRNACUA pair in the presence of the amino acid; assay type: cell-based; settings: for incorporation by the MbPyIRS/tRNACUA pair (myoglobin-his6 purified by Ni-NTA chromatography): E. coli, 1 mM amino acid; for yield of full-length myoglobin-his6 purified by Ni-NTA chromatography: E. coli with pBKPylS and pMyo4TAGPylT-his6, amino acid added to log phase cells (1 mM for 1 and 2)
T1 construct: expressed in transfected cells; host or cells: E. coli DH10B transformed with pBKPylS and pMyo4TAGPylT-his6
Procedure: To investigate whether 1 and 2 are substrates for the MbPyIRS/tRNACUA pair, we transformed E. coli with pBKPylS10 (which encodes MbPyIRS) and pMyo4TAGPylT-his610 (which encodes MbtRNACUA and a C-terminally hexahistidine tagged myoglobin gene with an amber codon at position 4). We added 1 or 2 (1 mM) to log phase cells and induced myoglobin-his6 expression. […] This may reflect the greater flexibility of the carbamate linkage. The yield of protein containing 2 was not improved by efforts to evolve the enzyme but was increased 5-fold by increasing the concentration of 2 7.5 fold (Supplementary FIG. 2A).
To investigate if the carbamate linkage provides a general route to the incorporation of other functional groups suitable for bioconjugation, we synthesized a simple aliphatic azide 3 (2 steps, 80% yield, Supplementary Scheme 1 and Supplementary Methods).
To express sperm whale myoglobin with an incorporated unnatural amino acid, we transformed E. coli DH10B cells with pBKPylS and pMyo4TAGPylT-his6. Cells were recovered in 1 mL of LB media for 1 h at 37° C., before incubation (16 h, 37° C., 250 r.p.m.) in 100 mL of LB containing kanamycin (50 μg/mL) and tetracycline (25 μg/mL). 20 mL of this overnight culture was used to inoculate 500 mL of LB supplemented with kanamycin (25 μg/mL), tetracycline (12 μg/mL) and 2 mM of 2. Cells were grown (37° C., 250 r.p.m.), and protein expression was induced at OD600-0.6, by addition of arabinose to a final concentration of 0.2%. After 3 h of induction, cells were harvested. Proteins were extracted by sonication at 4° C. The extract was clarified by centrifugation (20 min, 21,000 g, 4° C.), 300 μL of Ni^2+-NTA beads (Qiagen) were added to the extract, the mixture was incubated with agitation for 1 h at 4° C. Beads were collected by centrifugation (10 min, 1000 g). The beads were twice resuspended in 50 mL wash buffer and spun down at 1000 g. Subsequently, the beads were resuspended in 20 ml of wash buffer and transferred to a column. Protein was eluted in 1 ml of wash buffer supplemented with 200 mM imidazole and was then re-buffered to 20 mM ammonium bicarbonate using a sephadex G25 column. The purified proteins were analysed by 4-12% SDS-PAGE.
E. coli DH10B cells containing pBKPylS and pMyo4TAGPylT were inoculated into LB containing kanamycin (50 μg/mL) and tetracycline (25 μg/mL). The cells were incubated with shaking overnight at 37° C. 200 μL of cells were inoculated into each of 3 mL LB aliquots containing kanamycin (25 μg/mL) and tetracycline (12 μg/mL) and supplemented with different concentrations (7.5 mM, 5 mM, 2.5 mM, 1 mM, 0.75 mM, 0.5 mM, 0.25 mM, 0.1 mM, 0 mM) of 2. After 3 h of incubation with shaking at 37° C., protein expression was induced by the addition of 30 μL of 20% arabinose. After 12 h of expression, cell were collected by centrifugation (16000 g, 5 min) of 1 mL of cell suspension. The cells were resuspended in 100 μL of NuPAGE SDS Sample buffer supplemented with 10% f3-mercaptoethanol, heated at 80° C. for 10 min and centrifuged at 16000 g for 10 min. The crude cell lysate was analysed by 4-12% SDS-PAGE. Western blots were performed with antibodies against the hexahistidine tag (Invitrogen AntiHis monoclonal Mouse antibody).

[1] = Labeling of myoglobin-his6 bearing 2 with azido-probes via copper catalysed [3+2] cycloaddition; settings: biotin azide 5 or By3 azide 6; CuSO4/ascorbate/ligand, pH 8.3
Procedure: In control experiments myoglobin-his6 bearing 3 at position 4 was treated identically. After 18 h, the purified labeling reactions were probed (FIG. 2A).
Quantification of the ratio of biotin or By3 to protein in purified samples provides independent confirmation of the labeling efficiency (Supplementary Methods).
Protein was re-buffered to 100 mM sodium phosphate buffer (pH 8.3) and concentrated to 2.5 mg/mL. 100 mM stock solutions of CuSO4, sulfonated bathophenanthroline sodium salt (GFS Chemicals) and sodium ascorbate in water were prepared, pre-mixed and incubated at room temperature for 5 min. Myoglobin containing 2 (13.5 nmol) was reacted for 15 minutes at 25° C., then 4° C. for 18 h with the biotin azide (Quanta Biodesign) 5 or the By3 azide (Primetech LTD) 6 (50 equivalents, 10 mM in DMSO) and CuSO4 (1 mM)/ascorbate (1 mM)/ligand (2 mM)^20. After 18 h, the solutions were diluted to 1 mL and loaded onto an Illustra™ NAP-10 column. Proteins were eluted into 1.5 mL of 20 mM NH4HCO3, dialyzed overnight with 20 mM NH4HCO3, loaded onto PD10 and eluted into 3.5 mL 20 mM NH4HCO3. […] Protein concentration of the labeled samples were measured by BCA Protein Assay (Thermo Scientific). The Biotin Quantitation Kit (Thermo Scientific) was used to quantify biotin-conjugated protein in labeled samples, and the By3 absorbance at 550 nm was used to quantify purified By3-labeled protein. […]

T1 sequence (Q6WRH6 whole entry): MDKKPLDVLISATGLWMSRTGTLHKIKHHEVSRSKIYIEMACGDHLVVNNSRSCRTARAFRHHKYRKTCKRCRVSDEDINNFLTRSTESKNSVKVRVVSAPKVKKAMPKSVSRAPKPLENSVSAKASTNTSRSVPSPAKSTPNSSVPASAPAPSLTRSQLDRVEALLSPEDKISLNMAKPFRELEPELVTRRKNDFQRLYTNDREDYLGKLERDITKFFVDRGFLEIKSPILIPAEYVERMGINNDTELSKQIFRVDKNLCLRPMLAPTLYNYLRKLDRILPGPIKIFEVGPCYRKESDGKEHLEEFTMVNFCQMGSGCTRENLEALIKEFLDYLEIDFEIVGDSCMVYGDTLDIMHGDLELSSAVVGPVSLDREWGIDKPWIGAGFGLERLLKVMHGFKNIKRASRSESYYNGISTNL

Row | Structure (SMILES) | incorporation by the MbPyIRS/tRNACUA pair (myoglobin-his6 purified by Ni-NTA chromatography) (MbPyIRS/tRNACUA pair) | yield of full-length myoglobin-his6 purified by Ni-NTA chromatography (MbPyIRS/tRNACUA pair) [mg/L] | increase in yield of protein containing 2 (MbPyIRS/tRNACUA pair; on increasing the concentration of 2 7.5 fold, Western blot against his-6 in cell lysates) [fold] | labeling of genetically encoded alkyne with azides that introduce biotin or fluorescent groups [1]
1 | C#CCCC(=O)NCCCC[C@H](N)C(=O)O.O=C(O)C(F)(F)F [compound 1, (S)-2-amino-6-pent-4-ynamidohexanoic acid TFA salt] | only background levels |  |  | 
2 | O=C(O)C(F)(F)F.[N-]=[N+]=NCCOC(=O)NCCCC[C@H](N)C(=O)O [compound 3, (S)-2-amino-6-((2-azidoethoxy)carbonylamino)hexanoic acid TFA salt] |  | 3 |  | 
3 | C#CCOC(=O)NCCCC[C@H](N)C(=O)O.O=C(O)C(F)(F)F [compound 2, (S)-2-amino-6-((prop-2-ynyloxy)carbonylamino)hexanoic acid TFA salt] | incorporated | 2 | 5 | specifically and efficiently labeled

— patent US9868956B2, “Methods” (North Carolina State University, priority 2009, dated 2018)
